Measured values as given in patent EP4768487A1, “FUSED LACTAM RING COMPOUND AND USE THEREOF” (Chengdu Zenitar Biomedical Technology Co., Ltd., priority 2023, dated 2025).
Where two headings read alike, the source gives them in different places.

Experiments:
PARP1 = target: T1, PARP1 (Homo sapiens, UniProt P09874); assay: PARP1 enzyme assay (histone-coated plate, chemiluminescence); type: biochemical; conditions: PARP1 0.02 nM, DNA 0.8 nM, NAD+ 3.5 µM; read-out: PARP-1 IC50
T1 construct: purchased BPS 80501

[1] = Cerebrospinal fluid and plasma distribution in vivo; conditions: rat, male rats, intravenous 5 mg/kg, n = 1
[2] = cerebrospinal fluid, read-out: Cerebrospinal fluid

T1 sequence (P09874 whole entry): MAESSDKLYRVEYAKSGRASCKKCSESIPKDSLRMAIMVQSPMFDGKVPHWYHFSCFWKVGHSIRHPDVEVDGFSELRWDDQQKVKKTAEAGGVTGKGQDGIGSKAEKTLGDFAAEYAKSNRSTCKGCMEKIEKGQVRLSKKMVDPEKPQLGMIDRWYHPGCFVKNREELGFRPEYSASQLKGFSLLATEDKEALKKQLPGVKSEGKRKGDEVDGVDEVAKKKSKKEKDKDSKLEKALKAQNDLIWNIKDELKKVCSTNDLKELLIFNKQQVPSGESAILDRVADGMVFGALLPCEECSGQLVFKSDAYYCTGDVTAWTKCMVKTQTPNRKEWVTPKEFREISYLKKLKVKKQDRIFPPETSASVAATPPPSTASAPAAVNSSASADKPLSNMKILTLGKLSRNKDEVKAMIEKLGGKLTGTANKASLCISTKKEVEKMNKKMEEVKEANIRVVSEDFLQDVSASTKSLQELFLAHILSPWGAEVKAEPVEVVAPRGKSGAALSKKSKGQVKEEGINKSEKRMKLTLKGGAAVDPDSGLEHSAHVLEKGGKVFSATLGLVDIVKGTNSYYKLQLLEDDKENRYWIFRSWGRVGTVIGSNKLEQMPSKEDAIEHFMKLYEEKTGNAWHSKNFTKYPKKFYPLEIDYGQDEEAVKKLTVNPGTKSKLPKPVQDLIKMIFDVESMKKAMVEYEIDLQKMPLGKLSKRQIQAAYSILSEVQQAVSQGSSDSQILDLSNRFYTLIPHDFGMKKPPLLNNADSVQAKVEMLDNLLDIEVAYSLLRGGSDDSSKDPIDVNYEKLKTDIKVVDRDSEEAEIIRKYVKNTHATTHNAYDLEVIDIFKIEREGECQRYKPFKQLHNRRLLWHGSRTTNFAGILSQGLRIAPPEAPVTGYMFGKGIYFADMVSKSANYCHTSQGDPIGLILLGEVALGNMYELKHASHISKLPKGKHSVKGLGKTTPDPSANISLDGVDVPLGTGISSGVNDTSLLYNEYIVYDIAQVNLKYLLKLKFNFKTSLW

Compound: CNC(=O)c1ccc(N2CCN(CC3Cc4[nH]c(=O)c(C)cc4CO3)CC2)c(Cl)n1 (centres unmarked) [Example 74, 6-Chloro-N-methyl-5-(4-((3-methyl-2-oxo-1,5,7,8-tetrahydro-2H-pyrano[4,3-b]pyridin-7-yl)methyl)piperazin-1-yl)picolinamide]
- IC50 (PARP1): ≤ 50 nM
- concentration at 0.25 h [1, 2]: 60 ng/g
- concentration at 2 h [1, 2]: 19 ng/g
- concentration at 0.25 h ([1]; plasma, read-out: Plasma): 8790 ng/mL
- concentration at 2 h ([1]; plasma, read-out: Plasma): 5560 ng/mL
